Results reported in patent US20250230147A1, “LACTAMS AS CBL-B INHIBITORS” (Genentech, Inc., priority 2021, published 2025).
Where a name gives a salt, the structure may show the parent alone.

Assays:
[1] = target: Cbl-b (Homo sapiens (Human), UniProt Q13191); assay: Cbl-b LCK Ub TR-FRET assay (Cbl-b Lck HTRF); format: biochemical
Procedure, shortened: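 TR-FRET (340 nm excitation, 615/665 nm emission) read after adding HA-ubiquitin–UBE2D2 thioester, anti-HA-D2 and streptavidin-Eu. Beforehand, compounds incubated 60 min with biotinylated Cbl-b, then 90 min with His-LCK and ATP (1 mM in 2× mix); IC50 from 10 concentrations, DMSO high and no-LCK low controls.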

[2] = target: c-Cbl (Homo sapiens (Human), UniProt P22681); assay: C-Cbl LCK Ub TR-FRET assay (c-cbl Lck HTRF); format: biochemical; settings: for (fold-selectivity): C-cbl Lck HTRF IC50 relative to Cbl-b Lck HTRF IC50
Procedure, shortened: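 After the ubiquitination reaction, detection mixture was added and plates incubated 20 min at room temperature before reading. IC50 values were calculated with wells lacking LCK as the low control and DMSO as the high control.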

c-Cbl, sequence (P22681 47-435): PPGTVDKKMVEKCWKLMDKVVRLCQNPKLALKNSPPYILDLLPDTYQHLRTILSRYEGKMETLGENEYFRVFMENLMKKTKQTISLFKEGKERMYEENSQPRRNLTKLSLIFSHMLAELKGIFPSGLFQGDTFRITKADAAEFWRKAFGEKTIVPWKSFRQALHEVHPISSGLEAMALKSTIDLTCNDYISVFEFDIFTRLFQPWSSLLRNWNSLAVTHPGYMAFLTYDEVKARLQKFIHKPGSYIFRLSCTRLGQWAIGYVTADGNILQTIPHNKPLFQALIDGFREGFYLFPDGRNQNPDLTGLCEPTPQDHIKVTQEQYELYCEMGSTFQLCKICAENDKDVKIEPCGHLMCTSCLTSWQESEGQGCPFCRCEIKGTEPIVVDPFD
Cbl-b, sequence (Q13191 40-426): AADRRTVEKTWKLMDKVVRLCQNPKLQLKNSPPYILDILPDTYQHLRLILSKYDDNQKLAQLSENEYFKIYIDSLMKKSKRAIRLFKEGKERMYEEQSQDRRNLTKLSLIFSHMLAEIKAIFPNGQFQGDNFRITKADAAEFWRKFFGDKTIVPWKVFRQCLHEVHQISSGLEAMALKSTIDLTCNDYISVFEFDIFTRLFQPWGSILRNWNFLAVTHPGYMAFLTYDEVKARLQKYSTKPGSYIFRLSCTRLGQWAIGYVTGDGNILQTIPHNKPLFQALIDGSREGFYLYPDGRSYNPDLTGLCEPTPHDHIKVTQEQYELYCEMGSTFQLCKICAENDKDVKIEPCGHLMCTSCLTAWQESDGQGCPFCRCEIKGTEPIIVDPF

| Compound | IC50 [1] [nM] | IC50 [2] [nM] | (fold-selectivity) [2] |
| --- | --- | --- | --- |
| CC(C)[C@@H]1CN(Cc2cc3c(c(C(F)(F)F)c2)CN(c2cccc(C4(Cc5nncn5C)CC(F)(F)C4)c2)C3=O)CCN1C [Compound 438, (R)-2-(3-(3,3-difluoro-1-((4-methyl-4H-1,2,4-triazol-3-yl)methyl)cyclobutyl)phenyl)-6-((3-isopropyl-4-methylpiperazin-1-yl)methyl)-4-(trifluoromethyl)isoindolin-1-one] | 41 | 32 | (0.80x) |
| Cn1cnnc1CC1(c2cccc(N3Cc4c(cc(CN5CCC[C@](C)(O)C5)cc4C(F)(F)F)C3=O)c2)CC(F)(F)C1 [Compound 440, (S)-2-(3-(3,3-difluoro-1-((4-methyl-4H-1,2,4-triazol-3-yl)methyl)cyclobutyl)phenyl)-6-((3-hydroxy-3-methylpiperidin-1-yl)methyl)-4-(trifluoromethyl)isoindolin-1-one] | 140 | 110 | (0.79x) |
| Cn1cnnc1CC1(c2cccc(N3Cc4c(cc(CN5CCC[C@@](C)(O)C5)cc4C(F)(F)F)C3=O)c2)CC(F)(F)C1 [Compound 441, (R)-2-(3-(3,3-difluoro-1-((4-methyl-4H-1,2,4-triazol-3-yl)methyl)cyclobutyl)phenyl)-6-((3-hydroxy-3-methylpiperidin-1-yl)methyl)-4-(trifluoromethyl)isoindolin-1-one] | 42 | 23 | (0.56x) |
| CN1CC(Cc2cc3c(c(C(F)(F)F)c2)CN(c2cccc(C4(Cc5nncn5C)CC(F)(F)C4)c2)C3=O)C1 [Compound 442, 2-(3-(3,3-difluoro-1-((4-methyl-4H-1,2,4-triazol-3-yl)methyl)cyclobutyl)phenyl)-6-((1-methylazetidin-3-yl)methyl)-4-(trifluoromethyl)isoindolin-1-one formate] | 96 | 64 |  |
| CO[C@H]1CCCN(Cc2cc3c(c(C(F)(F)F)c2)CN(c2cccc(C4(Cc5nncn5C)CC(F)(F)C4)c2)C3=O)C1 [Compound 443, (S)-2-(3-(3,3-difluoro-1-((4-methyl-4H-1,2,4-triazol-3-yl)methyl)cyclobutyl)phenyl)-6-((3-methoxypiperidin-1-yl)methyl)-4-(trifluoromethyl)isoindolin-1-one] | 59 | 180 | (2.8x) |
| CN1CCN(Cc2cc3c(c(C(F)(F)F)c2)CN(c2cccc(C4(Cc5nncn5C)CC(F)(F)C4)c2)C3=O)C(=O)C1 [Compound 444, 2-(3-(3,3-difluoro-1-((4-methyl-4H-1,2,4-triazol-3-yl)methyl)cyclobutyl)phenyl)-6-((4-methyl-2-oxopiperazin-1-yl)methyl)-4-(trifluoromethyl)isoindolin-1-one] | 170 | 180 | (1.1x) |
| CCCNCc1cc2c(c(C(F)(F)F)c1)CN(c1cccc(C3([C@@H](F)c4nncn4C)CC(F)(F)C3)c1)C2=O [Compound 445, (R)-2-(3-(3,3-difluoro-1-(fluoro(4-methyl-4H-1,2,4-triazol-3-yl)methyl)cyclobutyl)phenyl)-6-((propylamino)methyl)-4-(trifluoromethyl)isoindolin-1-one] | 26 | 33 | (1.3x) |
| CCCNCc1cc2c(c(C(F)(F)F)c1)CN(c1cccc(C3([C@H](F)c4nncn4C)CC(F)(F)C3)c1)C2=O [Compound 446, (S)-2-(3-(3,3-difluoro-1-(fluoro(4-methyl-4H-1,2,4-triazol-3-yl)methyl)cyclobutyl)phenyl)-6-((propylamino)methyl)-4-(trifluoromethyl)isoindolin-1-one] | 26 | 29 | (1.3x) |

Compounds with a lower IC50 [1], results first:

| IC50 [1] [nM] | IC50 [2] [nM] | (fold-selectivity) [2] | Compound |
| --- | --- | --- | --- |
| 12 | 7.1 | (0.58x) | CC(C)[C@H]1CN(Cc2cc3c(c(C(F)(F)F)c2)CN(c2cccc(C4(Cc5nncn5C)CC(F)(F)C4)c2)C3=O)CCN1C [Compound 439, (S)-2-(3-(3,3-difluoro-1-((4-methyl-4H-1,2,4-triazol-3-yl)methyl)cyclobutyl)phenyl)-6-((3-isopropyl-4-methylpiperazin-1-yl)methyl)-4-(trifluoromethyl)isoindolin-1-one] |
| 16 | 20 | (1.2x) | Cn1cnnc1[C@H](F)C1(c2cccc(N3Cc4c(cc(CNCCCF)cc4C(F)(F)F)C3=O)c2)CC(F)(F)C1 [Compound 447, (R)-2-(3-(3,3-difluoro-1-(fluoro(4-methyl-4H-1,2,4-triazol-3-yl)methyl)cyclobutyl)phenyl)-6-(((3-fluoropropyl)amino)methyl)-4-(trifluoromethyl)isoindolin-1-one] |
| 14 | 16 | (1.1x) | Cn1cnnc1[C@@H](F)C1(c2cccc(N3Cc4c(cc(CNCCCF)cc4C(F)(F)F)C3=O)c2)CC(F)(F)C1 [Compound 448, (S)-2-(3-(3,3-difluoro-1-(fluoro(4-methyl-4H-1,2,4-triazol-3-yl)methyl)cyclobutyl)phenyl)-6-(((3-fluoropropyl)amino)methyl)-4-(trifluoromethyl)isoindolin-1-one] |
| 20 | 21 | (1.1x) | Cn1cnnc1[C@H](F)C1(c2cccc(N3Cc4c(cc(CNCC5CC5)cc4C(F)(F)F)C3=O)c2)CC(F)(F)C1 [Compound 449, (R)-6-(((cyclopropylmethyl)amino)methyl)-2-(3-(3,3-difluoro-1-(fluoro(4-methyl-4H-1,2,4-triazol-3-yl)methyl)cyclobutyl)phenyl)-4-(trifluoromethyl)isoindolin-1-one] |
| 15 | 14 | (0.95x) | Cn1cnnc1[C@@H](F)C1(c2cccc(N3Cc4c(cc(CNCC5CC5)cc4C(F)(F)F)C3=O)c2)CC(F)(F)C1 [Compound 450, (S)-6-(((cyclopropylmethyl)amino)methyl)-2-(3-(3,3-difluoro-1-(fluoro(4-methyl-4H-1,2,4-triazol-3-yl)methyl)cyclobutyl)phenyl)-4-(trifluoromethyl)isoindolin-1-one] |
| 15 | 10 | (0.71x) | CC(C)CNCc1cc2c(c(C(F)(F)F)c1)CN(c1cccc(C3([C@@H](F)c4nncn4C)CC(F)(F)C3)c1)C2=O [Compound 451, (R)-2-(3-(3,3-difluoro-1-(fluoro(4-methyl-4H-1,2,4-triazol-3-yl)methyl)cyclobutyl)phenyl)-6-((isobutylamino)methyl)-4-(trifluoromethyl)isoindolin-1-one] |
| 12 | 9.1 | (0.78x) | CC(C)CNCc1cc2c(c(C(F)(F)F)c1)CN(c1cccc(C3([C@H](F)c4nncn4C)CC(F)(F)C3)c1)C2=O [Compound 452, (S)-2-(3-(3,3-difluoro-1-(fluoro(4-methyl-4H-1,2,4-triazol-3-yl)methyl)cyclobutyl)phenyl)-6-((isobutylamino)methyl)-4-(trifluoromethyl)isoindolin-1-one] |
| 14 | 18 | (1.4x) | Cn1cnnc1CC1(c2cccc(N3Cc4c(cc([C@@H](N)C5CC5)cc4C(F)(F)F)C3=O)c2)CC(F)(F)C1 [Compound 453, (S)-6-(amino(cyclopropyl)methyl)-2-(3-(3,3-difluoro-1-((4-methyl-4H-1,2,4-triazol-3-yl)methyl)cyclobutyl)phenyl)-4-(trifluoromethyl)isoindolin-1-one] |
